Source: US20250368624A1, “M24B AMINOPEPTIDASE INHIBITORS FOR CARD8 INFLAMMASOME ACTIVATION” (Memorial Sloan-Kettering Cancer Center, priority 2022, published 2025)

What was measured:
[1] = test system: primary bone marrow-derived macrophages (BMDMs) and mouse RAW264.7 cells; assay: LDH release and GSDMD cleavage in BMDMs and RAW264.7 cells (mouse NLRP1); type: cell-based; details: VbP 10 μM, CQ31/CQ80 20 μM, 24 h
Procedure: Mouse BMDM isolation and culture. Bone marrow was harvested from the femurs and tibias of 7-12-week-old C57BL/6J mice. Briefly, femurs and tibias were harvested from mice and crushed with a mortar and pestle in cold 1×PBS supplemented with 2.5% FBS. The mixture was passed through a 70-μm nylon cell strainer. RBCs were lysed for 4-5 min on ice in 1×RBC lysis buffer (Biolegend) and cells were centrifuged at 300×g for 5 min at 4° C. The cell pellet was washed in cold 1×PBS supplemented with 2.5% FBS before being passed again through in a 70-μm nylon cell strainer and counted. Counted cells were plated on non-tissue culture 10-cm plates at 5-10×10^6 cells per plate in DMEM supplemented with 10% FBS and 15-20% L-cell media. Cells were incubated at 37° C. for 6 days before replating and assaying as indicated.
LDH cytotoxicity and immunoblotting assays. HEK293T cells were transiently transfected and treated with inhibitors as indicated. MV4;11, OCI AML2, THP-1, and RAW264.7 cells were plated in 12-well culture plates at 5×10^5 cells/well and treated as indicated. Supernatants were analyzed for LDH activity using the Pierce LDH Cytotoxicity Assay Kit (Life Technologies). LDH activity was quantified relative to a lysis control where cells were lysed in 80 μL of a 9% Triton X-100 solution. For immunoblotting, cells were washed 2× in PBS (pH=7.4), resuspended in PBS, and lysed by sonication. Protein concentrations were determined and normalized using the DCA Protein Assay kit (Bio-Rad). The samples were separated by SDS-PAGE, immunoblotted, and visualized using the Odyssey Imaging System (Li-Cor).

[2] = test system: N/TERT-1 keratinocytes; assay: Cell viability of N/TERT-1 keratinocytes (NLRP1 inflammasome); type: cell-based, human; details: VbP 10 μM, CQ compounds 20 μM, 24 h, CTG
Procedure: Cell Culture. HEK293T, THP-1, RAW264.7 cells were purchased from ATCC. MV4;11, OCI-AML2 cells were purchased from DSMZ. N/TERT1 cells were a gift from the Rheinwald Lab (Dickson et al., 2000). HEK293T and RAW264.7 cells were grown in Dulbecco's Modified Eagle's Medium (DMEM) with L-glutamine and 10% fetal bovine serum (FBS). N/TERT1 cells were grown in Keratinocyte serum free medium (KSFM) supplemented with 1× penicillin/streptomycin, bovine pituitary extract (25 μg/ml) and epidermal growth factor (EGF) (0.2 ng/ml). All other cell lines were grown in Roswell Park Memorial Institute (RPMI) medium 1640 with L-glutamine and 10% fetal bovine serum (FBS). All cells were grown at 37° C. in a 5% CO2 atmosphere incubator. Cell lines were regularly tested for mycoplasma using the MycoAlert™ Mycoplasma Detection Kit (Lonza).
(§1) CellTiter-Glo cell viability and CytoTox-Fluor cell death assays. Cells were plated (2,000 cells per well) in white, 384-well clear-bottom plates (Corning) using an EL406 Microplate Washer/Dispenser (BioTek) in 25 μL final volume of medium. To the cell plates were added compounds at different concentrations using a pintool (CyBio) and the plates were allowed to incubate in the incubator. After incubation for indicated times, CytoTox-Fluor reagent (Promega, G9262) was added according to the manufacturer's protocol. The assay plates were then incubated for another 30 min before fluorescence was recorded using a Cytation 5 Cell Imaging Multi-Mode Reader (BioTek). Next, CellTiter-Glo reagent (Promega, G7573) was subsequently added to the assay plates following the manufacturer's protocol. Assay plates were shaken on an orbital shaker for 2 min and incubated at 25° C. for 10 min. Luminescence was then read using a Cytation 5 Cell Imaging Multi-Mode Reader (BioTek).

[3] = target: XPNPEP1 (Homo sapiens (Human), UniProt Q9NQW7); assay: XPNPEP1 substrate assay (H-Lys(abz)-Pro-Pro-pNA); type: biochemical
Chain of XPNPEP1 (Q9NQW7 whole entry): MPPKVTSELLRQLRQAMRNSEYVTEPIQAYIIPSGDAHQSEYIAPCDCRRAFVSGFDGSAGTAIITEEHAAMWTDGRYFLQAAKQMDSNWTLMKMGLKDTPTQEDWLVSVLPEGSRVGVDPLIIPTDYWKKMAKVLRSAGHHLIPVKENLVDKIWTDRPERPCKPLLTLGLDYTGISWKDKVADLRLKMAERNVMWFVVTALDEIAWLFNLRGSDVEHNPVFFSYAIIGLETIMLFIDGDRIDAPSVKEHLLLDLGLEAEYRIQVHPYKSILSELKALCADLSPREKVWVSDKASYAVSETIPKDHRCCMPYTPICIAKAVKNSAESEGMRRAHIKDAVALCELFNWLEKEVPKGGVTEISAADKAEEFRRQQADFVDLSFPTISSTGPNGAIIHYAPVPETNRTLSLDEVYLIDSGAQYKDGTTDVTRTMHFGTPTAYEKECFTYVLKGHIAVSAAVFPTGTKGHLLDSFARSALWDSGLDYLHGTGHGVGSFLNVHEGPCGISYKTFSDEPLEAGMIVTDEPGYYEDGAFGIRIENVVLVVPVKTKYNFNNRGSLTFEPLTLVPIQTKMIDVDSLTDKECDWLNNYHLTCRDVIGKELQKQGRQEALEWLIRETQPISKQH
Procedure: Protein purification. Human prolidase (PEPD) was generated and purified. XPNPEP1 in pET15-b containing a 6× His tag was expressed in E. coli Rosetta DE3 cells. Cells were induced with IPTG for 16 h at 37° C., pelleted and lysed in buffer A (20 mM Tris-HCl (pH 7.9), 500 mM NaCl, and 10% (v/v) glycerol) by sonication. Affinity purification chromatography was performed using TALON resin and according to previously published protocols (Li et al., 2008).
(§2) Substrate assays. For the PEPD assay, a solution of substrate (Ala-Pro) was prepared in DMSO. 24 μL of 50 nM recombinant human PEPD were added to a 384-well, black, clear-bottom plate (Corning) with 1 μL dipeptide Ala-Pro (final conc. 40 μM). Alanine liberated was measured as increasing fluorescence signal (Resorufin, Ex/Em: 535/587 nm) recorded at 25° C. using an L-alanine assay kit (Abcam, ab83394) at 25° C. according to manufacturer's instructions. For the AMC reporter assays, experiments were performed with cell lysates. 5 μL solution of substrate (2.5 mM Ala-AMC) was added the mixture of 10 μL HEK293T cell lysates (2.5 mg/ml) and 10 μL of indicated compounds in a 384-well, black, clear-bottom plate (Corning) to initiate the reaction. Substrate cleavage was measured as increasing fluorescence signal (Ex/Em: 380/460 nm) recorded at 25° C. for 20 mins. For XPNPEP1 enzymes (XPNPEP1 3.5 nM) were plated on a black 384-well clear bottom plate and treated with the indicated doses of compounds. H-Lys(abz)-Pro-Pro-pNA substrate was added to a final concentration of 100 μM, and fluorescence was monitored (Ex/Em: 320/410) for 60 mins.

[4] = target: recombinant human PEPD (Homo sapiens (Human), UniProt P12955); assay: PEPD substrate assay (Ala-Pro cleavage, L-alanine assay kit); type: biochemical
Chain of recombinant human PEPD (P12955 whole entry): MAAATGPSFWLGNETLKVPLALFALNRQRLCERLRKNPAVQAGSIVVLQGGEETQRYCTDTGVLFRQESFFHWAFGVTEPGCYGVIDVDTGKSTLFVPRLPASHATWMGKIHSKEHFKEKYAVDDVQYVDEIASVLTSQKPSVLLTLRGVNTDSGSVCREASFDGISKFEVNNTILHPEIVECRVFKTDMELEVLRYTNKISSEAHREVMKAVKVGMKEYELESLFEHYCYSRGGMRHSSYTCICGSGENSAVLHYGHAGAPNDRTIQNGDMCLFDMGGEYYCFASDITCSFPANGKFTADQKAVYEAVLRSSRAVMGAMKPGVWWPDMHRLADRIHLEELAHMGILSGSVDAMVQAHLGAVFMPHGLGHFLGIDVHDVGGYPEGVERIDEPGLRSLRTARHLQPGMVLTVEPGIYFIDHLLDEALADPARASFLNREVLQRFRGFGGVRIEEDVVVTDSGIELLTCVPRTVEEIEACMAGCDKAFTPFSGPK
Procedure: Protein purification. Human prolidase (PEPD) was generated and purified. XPNPEP1 in pET15-b containing a 6× His tag was expressed in E. coli Rosetta DE3 cells.
as §2, with “Alanine liberated was measured as increasing fluorescence signal (Resorufin, Ex/Em: 535/587 nm) recorded at 25° C. using an L-alanine assay kit (Abcam, ab83394) at 25° C. according to manufacturer's instructions.” left out, “For XPNPEP1 enzymes (XPNPEP1 3.5 nM) were plated on a black 384-well clear bottom plate and treated with the indicated doses of compounds.” left out

[5] = test system: MV4;11 WT cells; assay: CellTiter-Glo cell viability, WT MV4;11 cells; type: cell-based; details: 24 h, CTG
Procedure: as §1

[6] = test system: MV4;11 CASP1-/- cells; assay: CellTiter-Glo cell viability, CASP1-/- MV4;11 cells; type: cell-based; details: Homo sapiens, MV4-11; 24 h, CTG
Procedure: Cloning. CASP1^−/− MV4;11 cells^12; CARD8^−/− MV4;11, THP-1, OCI-AML2 cells^14; DPP8/9^−/− THP-1^12; PEPD^−/−, XPNPEP1^−/−, PEPD XPNPEP1^−/− THP-1 cells were generated. Plasmids for CARD8 variants, CASP1, GSDMD, dTAG-CARD8^ZUC were cloned as described previously (Hollingsworth et al., 2021; Johnson et al., 2018; Sharif et al., 2021).
as §1

[7] = test system: OCI-AML2 cells; assay: Propidium iodide uptake, OCI-AML2 cells; type: cell-based; details: 6.25 μM, compared to CQ31
Procedure: Propidium iodideflux analysis. 2×10^4 MV4;11 or OCI-AML2 cells were plated in 384-well, black, clear-bottom plate (Corning) in RPMI medium. Cells were then treated as indicated and propidium iodide (PI) was added at a final concentration of 10 μM. PI fluorescence was measured at (Ex/Em: 535/617 nm) recorded at 37° C. every 5 mins in a Cytation 5 Cell Imaging Multi-Mode Reader (BioTek). The obtained measurements were baseline corrected to vehicle/DMSO and normalized to maximum response.

[8] = Stability in cell culture supernatants; type: in vitro ADME

For `CC(C)[C@H](N)C(=O)N1CCC[C@H]1B(O)O` [VbP, Val-boroPro, reference compound], the “pyroptosis (LDH release and GSDMD cleavage)” value [1] was “induced pyroptosis” and the “cell death in N/TERT-1 keratinocytes” value [2] was “induced cell death”.
Work on `COC(=O)[C@@H](NC(=O)[C@@H]1CCCN1C(=O)[C@@H](O)[C@H](N)CC(C)C)C(C)C` [CQ78, Methyl ((2S,3R)-3-amino-2-hydroxy-5-methylhexanoyl)-L-prolyl-L-valinate] yielded an IC50 ([3]; XPNPEP1 3.5 nM, substrate 100 μM, 60 mins) of 41000 nM, an IC50 ([4]; 50 nM recombinant human PEPD, Ala-Pro 40 μM, 25° C.) of 1200 nM and an IC50 ([5]; Homo sapiens, MV4-11) of 450 nM. For the same molecule, the IC50 [6] was > 20000 nM and the “lytic cell death by uptake of propidium iodide” value [7] was “more rapid lytic cell death”.
For `CC(C)C[C@@H](N)[C@H](O)C(=O)N1CCC[C@H]1C(=O)OC(C)(C)C` [CQ34, tert-butyl ((2S,3R)-3-amino-2-hydroxy-5-methylhexanoyl)-L-prolinate], the “XPNPEP1 inhibition (in words)” value [3] was “inhibited PEPD and XPNPEP1 inhibitors similarly”, the “PEPD inhibition (in words)” value [4] was “inhibited PEPD and XPNPEP1 inhibitors similarly” and the “cytotoxicity to MV4;11 cells (in words)” value [5] was “slightly more toxic”. The “stability in cell culture supernatants (in words)” value [8] was “considerably more stable than CQ31 or CQ94” and the “time after which completely hydrolyzed” value ([8]; cell culture supernatants) was ≤ 8 h.
